According to patent publication US20120107888A1, “MODULATION OF FERMENTATION PRODUCTS THROUGH VITAMIN SUPPLEMENTATION” (Qteros, Inc., priority 2011, published 2012):

System: C. phytofermentans
Conditions: basal medium; ethanol production from pretreated corn stover
Protocol: To examine the effect of individual nutrients (e.g., vitamins or amino acids) on the growth and/or ethanol production of C. phytofermentans, complex nutrients such as yeast extract were reduced to a minimal concentration that will permit sub-optimal growth. Each specific nutrient is added in a titration of increasing amount until a “saturation” of effect is observed.
Corn Stover, Mono and Dibasic Potassium Phosphate and Sodium Chloride were sterilized by autoclaving and the remaining components were added aseptically to each fermentation flask. DBY and CSP were separately prepared each as 100 g/L stocks and autoclaved.
All solutions and materials were degassed prior to use. Prior to inoculation, all flasks receive a sterile addition of commercial cellulases (from Novozymes) consisting of (per 100 mL medium): 0.25 mL Cat# NS50013 and 0.83 mL of diluted (1/10 in water) Cat# NS22002. […]
Following inoculation, flasks were placed in shaking fermenters at 35° C. with agitation at 175 rpm and sampled daily. […] Samples were analyzed for sugars (cellobiose, xylose, arabinose, and glucose) and fermentation products (formic, lactic, and acetic acids and ethanol) using HPLC.

## O=C(O)c1cccnc1 [nicotinic acid, Nicotinic acid]
  nicotinic acid supplementation above which a saturation effect is seen: > 10 mg/L
